Converted amounts (≈) assume the structure as drawn.
Experiments:
[1] = test system: HepG2; experiment: Cytotoxicity against human HepG2 cells; type: functional, cell-based
[2] = Cytotoxicity against human Hep3B cells; type: functional, cell-based, Hep 3B2
[3] = test system: MCF7; experiment: Cytotoxicity against human MCF7 cells; type: functional, cell-based
[4] = test system: MDA-MB-231; experiment: Cytotoxicity against human MDA-MB-231 cells; type: functional, cell-based
[5] = test system: A549; experiment: Cytotoxicity against human A549 cells; type: functional, cell-based

SMILES | IC50 [1] [µg/mL] | IC50 [2] [µg/mL] | IC50 [3] [µg/mL] | IC50 [4] [µg/mL] | IC50 [5] [µg/mL]
CC[C@H](CC[C@@H](C)[C@H]1CC[C@H]2[C@@H]3C(=O)C=C4C[C@@H](O)CC[C@]4(C)[C@H]3CC[C@]12C)C(C)C | > 20 | > 20 | > 20 | > 20 | > 20
COc1cc([C@H]2OC[C@H]3[C@@H]2CO[C@@H]3c2cc(OC)c(O)c(OC)c2)cc(OC)c1O [SYRINGARESINOL] | > 20 | 15.7 (≈ 37.6 µM) | > 20 | > 20 | > 20
COc1cccc2c1C(=O)c1c(O)c3c(c(O)c1C2=O)C[C@@](O)(C(=O)CO)C[C@@H]3O[C@H]1C[C@H](N)[C@H](O)[C@H](C)O1 [DOXORUBICIN] | 0.4 (≈ 0.736 µM) | 0.24 (≈ 0.442 µM) | 0.29 (≈ 0.534 µM) | 0.38 (≈ 0.699 µM) | 
C[C@@H]1CC[C@@]2(OC1)O[C@H]1C[C@H]3[C@@H]4CC=C5C[C@@H](O)CC[C@]5(C)[C@H]4CC[C@]3(C)[C@H]1[C@@H]2C [DISOGENIN] | > 20 | > 20 | > 20 | > 20 | > 20
C[C@H]1CC[C@@]2(OC1)O[C@H]1C[C@H]3[C@@H]4CC=C5C[C@@H](O)CC[C@]5(C)[C@H]4CC[C@]3(C)[C@H]1[C@@H]2C | > 20 | > 20 | > 20 | > 20 | > 20
CC[C@H](/C=C/[C@@H](C)[C@H]1CC[C@H]2[C@@H]3C(=O)C=C4C[C@@H](O)CC[C@]4(C)[C@H]3CC[C@]12C)C(C)C | > 20 | > 20 | > 20 | > 20 | > 20
COc1cc2ccc(=O)oc2cc1O [SCOPOLETIN] | > 20 | > 13.2 | 17.1 (≈ 89 µM) | > 20 | > 20
C[C@@H]1CC[C@@]2(OC1)O[C@H]1C[C@H]3[C@@H]4CCC5=CC(=O)CC[C@]5(C)[C@H]4CC[C@]3(C)[C@H]1[C@@H]2C [DIOSGENONE] | 13.4 (≈ 32.6 µM) | > 20 | > 20 | > 20 | > 20
CC(C)[C@@H](C)/C=C/[C@@H](C)[C@H]1CC[C@@H]2[C@]1(C)CC[C@H]1[C@]23C=C[C@]2(C[C@@H](O)CC[C@]12C)OO3 [ERGOSTEROL PEROXIDE] | 15.3 (≈ 35.6 µM) | 16.5 (≈ 38.5 µM) | 13.4 (≈ 31.3 µM) | 16.7 (≈ 39.1 µM) | 14.3 (≈ 33.4 µM)
CC(C)[C@@H](C)/C=C/[C@@H](C)[C@H]1CC[C@@H]2[C@]1(C)CC=C1[C@]23C=C[C@]2(C[C@@H](O)CC[C@]12C)OO3 | 7.73 (≈ 18.1 µM) | 15.5 (≈ 36.4 µM) | 9.18 (≈ 21.5 µM) | 7.32 (≈ 17.2 µM) | 10.4 (≈ 24.3 µM)
